Patent US8835632B2, “Methods to increase the photostability of dyes” (The University of North Carolina at Chapel Hill, priority 2007, dated 2014)

Experiments:
[1] = Methylene Blue-sensitized photobleaching (reactivity of the dyes with singlet oxygen); format: physicochemical; conditions: methanol, [dye]=[Methylene Blue]=3.33 μM, filtered light λ>630 nm, 40 min
Procedure: The reactivity of the dyes with singlet oxygen also was examined to confirm that the cyano substituent group affected photobleaching mediated by singlet oxygen. Singlet oxygen was generated using the photosensitizer Methylene Blue (MB), which has a high quantum yield for singlet oxygen production and allows singlet oxygen to be introduced into the system without excitation of the merocyanine dye. See Murov and Carmichael, Handbook of Photochemistry, 2nd ed.; Dekker: New York (1993).
15 mL of a methanol solution containing dye (3.33 μM) and Methylene Blue (3.33 μM) were placed in a 20-mL Borosilicate Glass Scintillation Vial (Fisher Scientific). The vial was illuminated with the light of a 90 W halogen reflector lamp (120 V, 1280 Lumens, 12 Degree Beam Spread). […] The length of the filtering solution was 1.0 cm. The distance between the vial and the lamp was 11.0 cm. A fan (120 V, 150 mm)) was used to cool the vial. At selected time intervals a sample was removed and the sample absorbance spectrum was obtained on a Hewlett-Packard 8453 diode array spectrophotometer (Agilent, Technologies, Inc.). Rate constants of dye photobleaching were obtained from a plot of ln(A) vs. time (see Table 5).
Again, without wishing to be bound to any one particular theory, the greater reactivity of S-SO vs. I-SO toward singlet oxygen can be attributed to the greater electron donating capacity of the benzothiazole moiety relative to the indolenine ring system.

[2] = Absorption and fluorescence spectra, extinction coefficient, fluorescence quantum yield; format: physicochemical; conditions: for Suppression of extinction coefficient by introduction of the cyano-group: in methanol
Procedure: Absorption spectra were recorded on a Hewlett-Packard 8453 diode array UV-Vis spectrophotometer (Agilent Technologies, Inc., Santa Clara, Calif.), and fluorescence measurements were taken on a SPEX® Fluorolog 2 spectrofluorometer (HORIBA Jobin Yvon, Inc., Edison, N.J.). Melting points are not corrected. NMR spectra were obtained on a Varian Mercury 300 MHz (Varian, Inc., Palo Alto, Calif.) or on a Bruker 300 MHz DRX 300 spectrometer (Bruker Biospin Corp., Billerica, Mass.). Mass spectra were obtained on a Hewlett-Packard 1100 high-performance liquid chromatograph equipped with an 1100 mass selective detector (MS-ESI) (Agilent Technologies, Inc.).
With decreasing solvent polarity, the absorption maximum of dyes 1a-b, 2a-d shifted to longer wavelengths, and the intensity of the transition increased (Table 10, FIG. 11).
The SCRF/VSCRF predicted emission energies and the solute dipole moments before and after the vertical emission process are given in Table 16. The dipole moments of AI-BA(4) and AI-SO(4) are further decreased on the S1 surface after geometry relaxation (in MeOH solution), and then increased during the S1→S0 transition. This observation is consistent with the blue shifts of the emission bands of AI-BA(4) and AI-SO(4) with increasing solvent polarity from C6H6 to MeOH. By contrast, the dipole moment of I-SO further decreases after S1 state geometry relaxation, and then decreases during the vertical emission process. This observation also is in agreement with the red shift of the I-SO emission band with increasing solvent polarity from C6H6 to MeOH. Similarly to the absorption case, a negligible red shift (ΔEem=0.017 eV) was predicted for the emission band of I-TBA with increasing solvent polarity. A small red shift from C6H6 to DMF (with ΔEem=0.020 eV, or Δλmax=6 nm) is observed. The nearly equal emission energy observed in C6H6 and MeOH can again result in the explicit interactions between the solute and solvent molecules.

[3] = Photobleaching under constant illumination from a halogen tungsten lamp filtered through glass; format: physicochemical
Source text: The photostability of dyes can be important for applications in living cells. The mechanism of photobleaching for merocyanines of varying structure has been examined See Toutchkine et al., J. Am. Chem. Soc. 125:4132-4145 (2003). The photostability of the presently disclosed dyes was characterized by exposing them to constant illumination from a halogen tungsten lamp filtered through glass. This broad spectrum light source provided essentially equal intensity throughout the spectral range where the dyes absorb and where they would be irradiated in vivo (about 600 nm to about 650 nm).

[4] = Relative rate of reaction with chemically generated singlet oxygen in DMSO; format: physicochemical; conditions: 2.5 mM, 1O2 from 1,4-dimethylnaphtalene-1,4-endoperoxide
Procedure: The bleaching rates for the dyes differed by two orders of magnitude. The relative rate constants kr (rel) for product formation during reaction with singlet oxygen were measured by comparing the percent conversions for dyes dissolved in DMSO containing a fixed amount of ^1O2 (2.5 mM solutions; ^1O2 generated by decomposition of 1,4-dimethylnaphtalene-1,4-endoperoxide). The rates were generally higher for dyes with a polar ground state (1a, 2a, 2b, 2d) than for the dyes with their ground state at the “cyanine limit” (3, 4). […] Olefins without allylic hydrogens react with singlet oxygen to form dioxetanes. Dioxetanes are unstable and decompose, to form two carbonyl compounds.

[5] = from C6H6 to MeOH; cited from earlier work
[6] = MeOH, with respect to standard I-TBA in MeOH

Compound: CN1/C(=C/C=C/C=C2/C(=O)c3ccccc3S2(=O)=O)C(C)(C)c2ccccc21 [I-SO, (2Z)-2-[(2E,4E)-4-(1,3,3-trimethyl-1,3-dihydro-2H-indol-2-ylidene)but-2-en-1-ylidene]-1-benzothiophen-3(2H)-one 1,1-dioxide, reference compound]
- Bleaching on irradiation of Methylene Blue [1]: 27%
- Absorbance λmax ([2]; Butanol (BuOH)): 587 nm
- Emission λmax ([2]; Butanol (BuOH)): 618 nm
- Extinction coefficient ε ([2]; Butanol (BuOH)): 134000
- Fluorescence quantum yield Φ ([2]; Butanol (BuOH)): 0.2
- Absorption energy Eabs Exp ([2]; C6H6): 2.172 eV
- Emission energy Eem Exp ([2]; C6H6): 2.056 eV
- Absorption energy Eabs Exp ([2]; MeOH): 2.116 eV
- Emission energy Eem Exp ([2]; MeOH): 2.016 eV
- Absorbance λmax ([2]; Methanol (MeOH)): 586 nm
- Emission λmax ([2]; Methanol (MeOH)): 615 nm
- Extinction coefficient ε ([2]; Methanol (MeOH)): 143000
- Fluorescence quantum yield Φ ([2]; Methanol (MeOH)): 0.03
- Observed absorption (ε) ([2]; Table 10, BuOH): (134000)
- Observed absorption λmax ([2]; Table 10, BuOH): 587 nm
- Observed absorption (ε) ([2]; Table 10, C6H6): (109000)
- Observed absorption λmax ([2]; Table 10, C6H6): 571 nm
- Observed absorption (ε) ([2]; Table 10, DMF): (143000)
- Observed absorption λmax ([2]; Table 10, DMF): 586 nm
- Observed absorption (ε) ([2]; Table 10, MeOH): (143000)
- Observed absorption λmax ([2]; Table 10, MeOH): 586 nm
- Observed absorption (ε) ([2]; Table 10, OcOH): (125000)
- Observed absorption λmax ([2]; Table 10, OcOH): 587 nm
- Absorption Exp wavelength ([2]; Table 12, C6H6): 571 nm
- Absorption Exp wavelength ([2]; Table 12, MeOH): 586 nm
- Observed emission (Φ) ([2]; Table 15, BuOH): 0.54
- Observed emission λmax ([2]; Table 15, BuOH): 618 nm
- Observed emission (Φ) ([2]; Table 15, C6H6): 0.42
- Observed emission λmax ([2]; Table 15, C6H6): 603 nm
- Observed emission (Φ) ([2]; Table 15, DMF): 0.97
- Observed emission λmax ([2]; Table 15, DMF): 615 nm
- Observed emission (Φ) ([2]; Table 15, MeOH): 0.08
- Observed emission λmax ([2]; Table 15, MeOH): 615 nm
- Observed emission (Φ) ([2]; Table 15, OcOH): 0.98
- Observed emission λmax ([2]; Table 15, OcOH): 617 nm
- Suppression of extinction coefficient by introduction of the cyano-group [2]: 62%
- kph * 10^6 (absolute rate of photobleaching) ([3]; C6H6): 1.11 s^−1
- kph(rel) (relative rate of photobleaching) ([3]; C6H6, with respect to standard I-SO in C6H6): 1.00
- kph * 10^6 (absolute rate of photobleaching) ([3]; MeOH): 0.53 s^−1
- kph(rel) (relative rate of photobleaching) [3, 6]: 1.56
- kr(rel) (relative rate constants for product formation during reaction with singlet oxygen produced chemically) [4]: 5.24
- Absorption wavelength shift [5]: 15 nm
- Emission wavelength shift [5]: 12 nm

Compound: CN1/C(=C(C#N)/C=C/C=C2/C(=O)c3ccccc3S2(=O)=O)C(C)(C)c2ccccc21 [I-SO-CN, (2Z,3E,5Z)-5-(1,1-dioxido-3-oxo-1-benzothiophen-2(3H)-ylidene)-2-(1,3,3-trimethyl-1,3-dihydro-2H-indol-2-ylidene)pent-3-enenitrile]
- Bleaching on irradiation of Methylene Blue [1]: 0%
- Absorbance λmax ([2]; Butanol (BuOH)): 527 nm
- Emission λmax ([2]; Butanol (BuOH)): 594 nm
- Extinction coefficient ε ([2]; Butanol (BuOH)): 56000
- Fluorescence quantum yield Φ ([2]; Butanol (BuOH)): 0.04
- Absorbance λmax ([2]; Methanol (MeOH)): 528 nm
- Emission λmax ([2]; Methanol (MeOH)): 595 nm
- Extinction coefficient ε ([2]; Methanol (MeOH)): 55000
- Fluorescence quantum yield Φ ([2]; Methanol (MeOH)): 0.03

Compound: C[n+]1ccc(/C=C/C=C/C2=C([O-])c3ccccc3S2(=O)=O)cc1 [P-SO(4)]
- Observed absorption (ε) ([2]; Table 10, BuOH): (64000)
- Observed absorption λmax ([2]; Table 10, BuOH): 593 nm
- Observed absorption (ε) ([2]; Table 10, C6H6): (178000)
- Observed absorption λmax ([2]; Table 10, C6H6): 644 nm
- Observed absorption (ε) ([2]; Table 10, CH2Cl2): (187000)
- Observed absorption λmax ([2]; Table 10, CH2Cl2): 629 nm
- Observed absorption (ε) ([2]; Table 10, CH3CN): (93000)
- Observed absorption λmax ([2]; Table 10, CH3CN): 596 nm
- Observed absorption (ε) ([2]; Table 10, DMF): (99000)
- Observed absorption λmax ([2]; Table 10, DMF): 604 nm
- Observed absorption (ε) ([2]; Table 10, DMSO): (77000)
- Observed absorption λmax ([2]; Table 10, DMSO): 599 nm
- Observed absorption (ε) ([2]; Table 10, EtOH): (61000)
- Observed absorption λmax ([2]; Table 10, EtOH): 557 nm
- Observed absorption (ε) ([2]; Table 10, MeOH): (54000)
- Observed absorption λmax ([2]; Table 10, MeOH): 580 nm
- Observed absorption (ε) ([2]; Table 10, OcOH): (80000)
- Observed absorption λmax ([2]; Table 10, OcOH): 612 nm
- Observed absorption (ε) ([2]; Table 10, i-PrOH): (68000)
- Observed absorption λmax ([2]; Table 10, i-PrOH): 597 nm
- Observed emission (Φ) ([2]; Table 15, BuOH): 0.048
- Observed emission λmax ([2]; Table 15, BuOH): 640 nm
- Observed emission (Φ) ([2]; Table 15, C6H6): 0.002
- Observed emission λmax ([2]; Table 15, C6H6): 656 nm
- Observed emission (Φ) ([2]; Table 15, CH2Cl2): 0.082
- Observed emission λmax ([2]; Table 15, CH2Cl2): 650 nm
- Observed emission (Φ) ([2]; Table 15, CH3CN): 0.067
- Observed emission λmax ([2]; Table 15, CH3CN): 632 nm
- Observed emission (Φ) ([2]; Table 15, DMF): 0.10
- Observed emission λmax ([2]; Table 15, DMF): 635 nm
- Observed emission (Φ) ([2]; Table 15, DMSO): 0.067
- Observed emission λmax ([2]; Table 15, DMSO): 636 nm
- Observed emission (Φ) ([2]; Table 15, EtOH): 0.029
- Observed emission λmax ([2]; Table 15, EtOH): 634 nm
- Observed emission (Φ) ([2]; Table 15, MeOH): 0.018
- Observed emission λmax ([2]; Table 15, MeOH): 630 nm
- Observed emission (Φ) ([2]; Table 15, OcOH): 0.082
- Observed emission λmax ([2]; Table 15, OcOH): 644 nm
- Observed emission (Φ) ([2]; Table 15, i-PrOH): 0.049
- Observed emission λmax ([2]; Table 15, i-PrOH): 636 nm
- kph * 10^6 (absolute rate of photobleaching) ([3]; MeOH): 28 s^−1
- kph(rel) (relative rate of photobleaching) [3, 6]: 82
- kr(rel) (relative rate constants for product formation during reaction with singlet oxygen produced chemically) [4]: 60.3

Compound: CCN1/C(=C/C=C/C=C2/C(=O)c3ccccc3S2(=O)=O)Sc2ccccc21 [S-SO, (2Z)-2-[(2E,4Z)-4-(3-ethyl-1,3-benzothiazol-2(3H)-ylidene)but-2-en-1-ylidene]-1-benzothiophen-3(2H)-one 1,1-dioxide, reference compound]
- Bleaching on irradiation of Methylene Blue [1]: 43%
- Absorbance λmax ([2]; Butanol (BuOH)): 604 nm
- Emission λmax ([2]; Butanol (BuOH)): 622 nm
- Extinction coefficient ε ([2]; Butanol (BuOH)): 163000
- Fluorescence quantum yield Φ ([2]; Butanol (BuOH)): 0.12
- Absorbance λmax ([2]; Methanol (MeOH)): 598 nm
- Emission λmax ([2]; Methanol (MeOH)): 617 nm
- Extinction coefficient ε ([2]; Methanol (MeOH)): 143000
- Fluorescence quantum yield Φ ([2]; Methanol (MeOH)): 0.05
- Suppression of extinction coefficient by introduction of the cyano-group [2]: 34%

Compound: CCN1/C(=C(C#N)/C=C/C=C2/C(=O)c3ccccc3S2(=O)=O)Sc2ccccc21 [S-SO-CN, (2E,3E,5Z)-5-(1,1-dioxido-3-oxo-1-benzothien-2(3H)-ylidene)-2-(3-ethyl-1,3-benzothiazol-2(3H)-ylidene)pent-3-enenitrile]
- Bleaching on irradiation of Methylene Blue [1]: no bleaching
- Absorbance λmax ([2]; Butanol (BuOH)): 550 nm
- Emission λmax ([2]; Butanol (BuOH)): 599 nm
- Extinction coefficient ε ([2]; Butanol (BuOH)): 91000
- Fluorescence quantum yield Φ ([2]; Butanol (BuOH)): 0.16
- Absorbance λmax ([2]; Methanol (MeOH)): 547 nm
- Emission λmax ([2]; Methanol (MeOH)): 597 nm
- Extinction coefficient ε ([2]; Methanol (MeOH)): 95000
- Fluorescence quantum yield Φ ([2]; Methanol (MeOH)): 0.05

Compound: CCN1C(=O)\C(=C/C=C/C=C2\Sc3ccccc3N2CC)C(O)N(CC)C1=S (centres unmarked) [S-TBA]
- Absorption wavelength shift [5]: 17 nm
- Emission wavelength shift [5]: 11 nm
